Data: US20250326744A1, “PIPERAZINE DERIVATIVE OR SALT THEREOF, AND PHARMACEUTICAL COMPOSITION” (priority 2022, published 2025)
Counter-ions that a name gives are not always drawn.

Columns and labels:
[1] = system: mexB (EC) strain; assay: Efflux ability inhibition effect on drug efflux pump MexB (Test Examples 1 and 3): proliferation (OD595) of mexB (EC) strain with EM or LVFX at 1/4 MIC, EC75; format: cell-based, Escherichia coli; details: Table 51, Test Example 1, 16 to 20 hours culture, OD595; for EC75, mexB (EC) strain, LVFX: combined with LVFX at 1/4 MIC; for EC75, mexB (EC) strain, EM: combined with EM at 1/4 MIC
Method: (§1) The efflux ability inhibition effect of the test compound on the drug efflux pump was evaluated using the bacterial proliferative ability in the presence of EM or LVFX as an index.
(§2) EM is a macrolide antibacterial agent and is a drug that is discharged outside the bacteria by MexB and MexY LVFX is a quinolone antibacterial agent and is a drug that is discharged outside the bacteria by MexB and MexY In a case where the test compound has an efflux ability inhibitory ability against the drug efflux pump, the proliferation of bacteria is suppressed by the combined use of EM or LVFX and the test compound, as compared with the case where EM or LVFX is used alone.
(§3) A mutant strain (hereinafter, referred to as an “mexB (EC) strain”) obtained by transferring the genes of the main multidrug efflux system MexAB-OprM of Pseudomonas aeruginosa described in Nature, 2013, Vol. 500, pp. 102 to 106 as a plasmid into Escherichia coli strains in which the acrB and tolC genes of the multidrug efflux system AcrAB-TolC were deleted as described in Journal of Infection and Chemotherapy 2008, Vol. 14, pp. 23 to 29, and a gene transfer strain (hereinafter, referred to as an “mexY (EC) strain”) of another main multidrug efflux system MexXY-OprM of Pseudomonas aeruginosa were used for the evaluation of test compounds.
(§4) In the mexB (EC) strain, an expression level of MexB of the drug efflux pump is accelerated, and in the mexY (EC) strain, an expression level of MexY of the drug efflux pump is accelerated.
(§5) For culturing each Escherichia coli strain, a 96-well plate (amount of culture medium per well: 100 μL) was used and Luria-Bertani broth (LB) culture medium was used. The inoculation amount of the bacteria was set to 10^4 to 5 CFU/well.
(§6) The mexB (EC) strain and the mexY (EC) strain were cultured for 16 to 20 hours in a culture medium to which EM or LVFX and test compounds at various concentrations (0 to 800 μM) were added, and the proliferation of the bacterial strains was evaluated by optical turbidity at 595 nm (OD595). The concentration of the antibacterial agents (EM and LVFX) in the culture medium were each set to ¼ of the minimum inhibitory concentration (MIC) (hereinafter, referred to as ¼ MIC) of the single antibacterial agent.
(§7) The proliferation of bacteria in a case where the antibacterial agent was added at the concentration of ¼ MIC in a case where the test compound was not added was measured, and compared with the proliferation of bacteria in a case where the test compound was contained, and the lowest concentration of the test compound at which the proliferation was inhibited by 75% or more was defined as the drug efflux pump inhibitory ability of the test compound as 75% inhibitory effect concentration (EC75).
(§8) The drug efflux pump inhibitory ability of each test compound in a case of being used in combination with the antibacterial agent against the mexB (EC) strain and the mexY (EC) strain was evaluated as follows according to the value of EC75. • S: EC75≤[…] • A: 12.5 μM<EC75≤25 μM • B: 25 μM<EC75≤100 μM • C: […]
(§9) In the same manner as in Test Example 1, the efflux ability inhibition effect of the test compound on the drug efflux pump was evaluated using the bacterial proliferation ability in the presence of EM or LVFX as an index.

[2] = system: mexY (EC) strain; assay: Efflux ability inhibition effect on drug efflux pump MexY (Test Examples 1 and 3): proliferation (OD595) of mexY (EC) strain with EM or LVFX at 1/4 MIC, EC75; format: cell-based, Escherichia coli; details: for EC75, mexY (EC) strain, EM: combined with EM at 1/4 MIC; for EC75, mexY (EC) strain, LVFX: combined with LVFX at 1/4 MIC
Method: as §1, §2, §3, §4, §5, §6, §7, §8, §9

[3] = system: mexB (PA) strain; assay: Combinational effect with antibacterial agent against Pseudomonas aeruginosa (Test Examples 2 and 4): mexB (PA) strain with LVFX, TC or AZT at 1/4 MIC, EC99; format: cell-based; details: for EC99, combinational effect with AZT, mexB (PA) / EC99, combinational effect with LVFX, mexB (PA) / EC99, combinational effect with TC, mexB (PA): mexB (PA) strain, Test Example 4
In short: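 EC99 denotes the minimum test-compound concentration (range 0–800 μM) that suppresses ≥99% of growth, measured by OD595, when combined with ¼ MIC levofloxacin (LVFX), tetracycline or aztreonam. The efflux-pump mutant mexB (PA), expressing mainly MexAB-OprM, was inoculated at 10^4–5 CFU/well in CAMHB for 16–20 h.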

[4] = system: S-3769 strain; assay: Combinational effect with antibacterial agent against Pseudomonas aeruginosa (Test Examples 2 and 4): S-3769 strain with AMK or GM at 1/4 MIC, EC99; format: cell-based; details: for EC99, combinational effect with AMK, S-3769 strain / EC99, combinational effect with GM, S-3769 strain: Test Example 4
In short: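 EC99, the lowest test-compound concentration inhibiting growth by ≥99% (OD595), was measured with aminoglycoside AMK or GM held at ¼ MIC. Strain S-3769, a MexY-overexpressing clinical isolate, was cultured in CAMHB at 10^4 to 5 CFU/well for 16–20 h; compound range 0–800 μM.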

[5] = Table 53, Test Example 3, same manner as Test Example 1
[6] = Table 51, Test Example 1, 16 to 20 hours culture, OD595

| Compound | EC75, mexB (EC) strain, LVFX [1] | EC75, mexY (EC) strain, EM [2, 5] | EC75, mexY (EC) strain, LVFX [2, 5] | EC99, combinational effect with AZT, mexB (PA) ([3]; combined with AZT at 1/4 MIC) | EC99, combinational effect with LVFX, mexB (PA) ([3]; combined with LVFX at 1/4 MIC) | EC99, combinational effect with TC, mexB (PA) ([3]; combined with TC at 1/4 MIC) | EC99, combinational effect with AMK, S-3769 strain ([4]; combined with AMK at 1/4 MIC) | EC99, combinational effect with GM, S-3769 strain ([4]; combined with GM at 1/4 MIC) | also measured |
| --- | --- | --- | --- | --- | --- | --- | --- | --- | --- |
| COc1cccc(OCCN)c1CN1CCN(C(=O)CN2CCN(CCc3ccccc3)CC2)CC1 [Example 266, hydrochloride of 1-(4-(2-(2-aminoethoxy)-6-methoxybenzyl)piperazin-1-yl)-2-(4-phenethylpiperazin-1-yl)ethan-1-one] | B (25 μM<EC75≤100 μM) | – | – | – | – | – | – | – | – |
| O=C(CN1CCN(CCc2ccccc2)CC1)N1CCN(Cc2ccccc2[N+](=O)[O-])CC1 [Example 235, Hydrochloride of 1-(4-(2-nitrobenzyl)piperazin-1-yl)-2-(4-phenethylpiperazin-1-yl) ethan-1-one] | B (25 μM<EC75≤100 μM) | – | – | – | – | – | – | – | EC75, mexB (EC) strain, EM [1]: B (25 μM<EC75≤100 μM) |
| COc1ccccc1CN1CCN(C(=O)CN2CCN(CCc3cncs3)CC2)CC1 [Example 294, 1-(4-(2-Methoxybenzyl)piperazin-1-yl)-2-(4-(2-(thiazol-5-yl)ethyl)piperazin-1-yl)ethan-1-one and hydrochloride thereof] | A (12.5 μM<EC75≤25 μM) | – | – | – | – | – | – | – | – |
| CCOc1cccc(F)c1CN1CCN(C(=O)[C@H](N)C2CCN(CCc3cc(Cl)ccc3-c3cccc(F)c3)CC2)CC1 [Example 60, Hydrobromide of (R)-2-amino-2-(1-(2-(4-chloro-3′-fluoro-[1,1′-biphenyl]-2-yl)ethyl)piperidin-4-yl)-1-(4-(2-ethoxy-6-fluorobenzyl)piperazin-1-yl)ethan-1-one] | – | – | – | – | – | – | – | – | EC75, mexB (EC) strain, EM [1]: A (12.5 μM<EC75≤25 μM) |
| CCOc1cccc(F)c1CN1CCN(C(=O)[C@H](N)C2CC[N+](CCc3cc(Cl)ccc3-c3ccccc3)(CC(=O)[O-])CC2)CC1 (stereo partly drawn) [Example 567, Hydrobromide of (R)-2-(4-(1-amino-2-(4-(2-ethoxy-6-fluorobenzyl)piperazin-1-yl)-2-oxoethyl)-1-(2-(4-chloro-[1,1-biphenyl]-2-yl)ethyl)piperidin-4-ium-1-yl)acetate] | – | B (25 μM<EC75≤100 μM) | B (25 μM<EC75≤100 μM) | C (100 μM<EC99) | C (100 μM<EC99) | C (100 μM<EC99) | B (25 μM<EC99≤100 μM) | C (100 μM<EC99) | – |
| CCOc1cccc(F)c1CN1CCN(C(=O)[C@H](N)C2CCN(CCc3cc(Cl)ccc3-c3c[nH]ccc3=O)CC2)CC1 [Example 577, Hydrochloride of (R)-3-(2-(2-(4-(1-amino-2-(4-(2-ethoxy-6-fluorobenzyl)piperazin-1-yl)-2-oxoethyl)piperidin-1-yl)ethyl)-4-chlorophenyl)pyridine-4(1H)-one] | – | – | A (12.5 μM<EC75≤25 μM) | B (25 μM<EC99≤100 μM) | B (25 μM<EC99≤100 μM) | B (25 μM<EC99≤100 μM) | C (100 μM<EC99) | C (100 μM<EC99) | – |
| CCOc1cccc(F)c1CN1CCN(C(=O)CN2CCC(C(N)Cc3ccccc3)CC2)CC1 (stereo not drawn) [Example 423, hydrochloride of 2-(4-(1-amino-2-phenylethyl)piperidin-1-yl)-1-(4-(2-ethoxy-6-fluorobenzyl)piperazin-1-yl)ethan-1-one] | – | – | – | – | – | – | – | – | EC75, mexY (EC) strain, EM [2, 6]: B (25 μM<EC75≤100 μM); EC75, mexY (EC) strain, LVFX [2, 6]: A (12.5 μM<EC75≤25 μM); EC99, mexB (PA), AZT ([3]; Table 52, Test Example 2, combined with AZT at 1/4 MIC, 16 to 20 hours culture, OD595): C (100 μM<EC99); EC99, mexB (PA), LVFX ([3]; Table 52, Test Example 2, combined with LVFX at 1/4 MIC, 16 to 20 hours culture, OD595): C (100 μM<EC99); EC99, mexB (PA), TC ([3]; Table 52, Test Example 2, combined with TC at 1/4 MIC, 16 to 20 hours culture, OD595): B (25 μM<EC99≤100 μM); EC99, S-3769 strain, AMK ([4]; Table 52, Test Example 2, combined with AMK at 1/4 MIC, 16 to 20 hours culture, OD595): C (100 μM<EC99); EC99, S-3769 strain, GM ([4]; Table 52, Test Example 2, combined with GM at 1/4 MIC, 16 to 20 hours culture, OD595): C (100 μM<EC99) |
| CCSc1cc(F)ccc1CN1CCN(C(=O)[C@H](N)C2CCN(CCc3cc(Cl)ccc3-c3ccccc3Cl)CC2)CC1 [Example 599, Hydrochloride of (R)-2-amino-2-(1-(2-(2′,4-dichloro-[1,1-biphenyl]-2-yl)ethyl)piperidin-4-yl)-1-(4-(2-(ethylthio)-4-fluorobenzyl)piperazin-1-yl)ethan-1-one] | – | A (12.5 μM<EC75≤25 μM) | – | S (EC99≤12.5 μM) | S (EC99≤12.5 μM) | S (EC99≤12.5 μM) | B (25 μM<EC99≤100 μM) | S (EC99≤12.5 μM) | – |
| N[C@@H](C(=O)N1CCN(Cc2nccc3c2OCCO3)CC1)C1CCN(CCc2cc(Cl)ccc2-c2ccccc2)CC1 [Example 520, Hydrobromide of (R)-2-amino-2-(1-(2-(4-chloro-[1,1-biphenyl]-2-yl)ethyl)piperidin-4-yl)-1-(4-((2,3-dihydro-[1,4]dioxino[2,3-c]pyridin-5-yl)methyl)piperazin-1-yl)ethan-1-one] | – | A (12.5 μM<EC75≤25 μM) | A (12.5 μM<EC75≤25 μM) | C (100 μM<EC99) | C (100 μM<EC99) | C (100 μM<EC99) | B (25 μM<EC99≤100 μM) | C (100 μM<EC99) | – |
| CSc1ccccc1CN1CCN(C(=O)[C@H](N)C2CCN(CCc3cc(Cl)ccc3-c3cccc(Cl)c3)CC2)CC1 [Example 552, Hydrobromide of (R)-2-amino-2-(1-(2-(3′,4-dichloro-[1,1-biphenyl]-2-yl)ethyl)piperidin-4-yl)-1-(4-(2-(methylthio)benzyl)piperazin-1-yl)ethan-1-one] | – | A (12.5 μM<EC75≤25 μM) | A (12.5 μM<EC75≤25 μM) | S (EC99≤12.5 μM) | S (EC99≤12.5 μM) | S (EC99≤12.5 μM) | B (25 μM<EC99≤100 μM) | S (EC99≤12.5 μM) | – |
